± gives the expanded uncertainty stated by the source.
How the values were obtained:
[1] = 298.15 K; 101.33 kPa; Liquid; Vibrating tube method
[2] = refractive index (Na D-line) (dimensionless); details: 101.33 kPa, Liquid, Standard Abbe refractometry

mass density [1] [kg/m3]	refractive index ([2]; 298.1 K)	refractive index ([2]; 298.15 K)	SMILES
936.38 ± 0.08	1.4358 ± 0.0007		CC(=O)N(C)C [N,N-dimethylethanamide]
1129.16 ± 0.16		1.4465 ± 0.0007	NC=O [formamide]
943.9 ± 0.11		1.4281 ± 0.0007	CN(C)C=O [dimethylformamide]
998.94 ± 0.23		1.4302 ± 0.0007	CNC=O [N-methylformamide]
